Measured values published in patent US8022036B2, “Use of thymosin alpha 1 for the treatment of immunological diseases” (Sigma-Tau Industrie Farmaceutiche Riunite S.p.A., priority 2006, dated 2011).
No end group written: not given here.

Experiments:
A. fumigatus = test: Aspergillosis in experimental HSCT after adoptive transfer of fungus-pulsed DCs; type: in vivo, mouse
Method: Human peripheral blood mononuclear cells were obtained from healthy donors and seven recipients of T-cell depleted haploidentical HSCT, upon written informed consent. Donor typing, engraftment and GVHD were assessed as described (Blood. 2005; 106; 4397-4406). Experimental HSCT model Lethally irradiated (8 Gy) C57BL6 mice were infused with T cell-depleted bone marrow cells from BALB/c mice (Blood. 2003; 102:3807-3814). For GVHD, purified donor CD3+ T splenocytes were added to the graft (Science. 2002; 295:2097-2100). Individual mice were graded weekly from 0-2 for each GVHD criterion (see legend to FIG. 3) without knowledge of treatment group.
The strain of A. fumigatus, the culture conditions and infection were as described in Blood. 2004; 103:4232-4239. Mice were anesthetized with 2.5% avertin (Sigma Chemical Co, St. Louis, Mo.). Quantification of fungal growth in the lungs was done by the chitin assay and results are expressed as micrograms of glucosamine per pair of lungs, and PAS staining was done as described in Blood. 2004; 103:4232-4239.
Mice received twice intraperitoneal injections of DCs, at weekly interval, starting a day after HSCT and infected a week after the last DC administration. Three days later, lung homogenates, CD4+ T cells (>98% on FACS analysis), CD4+CD25− (>98%) or CD4+CD25+ (>82%) purified with the specific Miltenyi Biotec isolation kits were assessed for pattern of pro- and anti-inflammatory (TNF-a/IL-10 in lung homogenates), Th1 (IFN-γ) or Th2 (IL-4) cytokine production by CD4+ cells stimulated with Aspergillus-pulsed DCs (Blood. 2003; 102:3807-3814) frequency of CD25+ IL-10^+ TGF-β+ T reg cells, lymphoproliferation and gene expression by RT-PCR. For proliferation, TLN CD4+ T lymphocytes were plated (10^5 cells/well) with 10^5 cells/well irradiated allogeneic splenocytes or autologous spDCs pulsed with conidia or 10 μg/mL Con A for five days before H^3-thymidine labeling.
Lethally irradiated C57BL/6 mice received=2×10^6 T cell-depleted allogeneic bone marrow cells from BALB/c mice 2 wk before the intratracheal injection of 2×10^8/80 μl saline Aspergillus conidia. One and seven days after transplantation, mice received Aspergillus-pulsed GM- or FL-DCs grown in Thymosin alpha 1, intraperitoneally.
Resistance to infection was assessed in terms of MST (median survival time in days) and fungal growth in the lung ([…] glucosamine content, bars indicating standard errors) 3 days after infection or at the time of death (A). […] The degree of systemic GVHD was assessed by a scoring system that sums changes in five clinical parameters: weight loss, posture (hunching), activity, fur texture, and skin integrity (maximum index=10). […]

[1] = system: bone marrow cells (GM-DCs, FL-DCs); test: Murine DC generation from bone marrow cells, flow cytometry and light microscopy; type: cell-based, mouse
Excerpt: GM-DCs or FL-DCs were obtained from purified CD14+ monocytes from healthy donors or transplanted patients (1 month post-HSCT) cultured in Iscove's modified medium for 7-9 days, in the presence of rGM-CSF (Schering-Plough, Milan, Italy) and rIL-4 (Peprotech, Inalco, Milan, Italy) or FLT3-L (Immunex Corporation, Seattle, Wash.) (Blood. 2004; 103:4232-4239). DC recovery was between 20-30% reduced in cultures from transplanted patients. Murine GM-DCs or FL-DCs were obtained from bone marrow cells for 7-9 days, as described (Blood. 2004; 103:4232-4239). Thymosin alpha 1 and sThymosin alpha 1 were added to the cultures at 20 ng/mL. DCs (>99% CD11c+ consisting of 90-95% CD8-, 5-10% CD8+, and 1-5% B220+ cells) were purified from spleens (spDCs) by magnetic-activated sorting using CD11c MicroBeads and MidiMacs (Miltenyi Biotech). DC populations were further separated into CD8−, CD8+ and B220+ fractions by means of CD8 or B220 MicroBeads (Miltenyi Biotech). DCs were pulsed in serum-free Iscove medium for 24 hours with live unopsonized Aspergillus conidia or Zymosan from Saccharomyces cerevisiae (Sigma) or CpG-ODN 2006 as described.7 Phagocytosis was done as described (Blood. 2004; 103:4232-4239). Photographs were taken using a high Resolution Microscopy Color Camera AxioCam, using the AxioVision Software Rel. 3.1 (Carl Zeiss, Milan, Italy).
DCs were analyzed for antigen expression with a FACScan flow cytofluorometer (Becton Dickinson, Mountain View, Calif.) equipped with CELLQuest™ software and using conjugated mAbs from PharMingen (Blood. 2004; 103:4232-4239).
To assess how Thymosin alpha 1 would affect the phenotypic and functional properties of murine DCs, bone marrow cells were grown for 7-9 days in medium containing GM-CSF/IL4 or FLT3L, in the presence of Thymosin alpha 1 or a control, scrambled peptide. After maturation, cells were analyzed by flow cytometry and light microscopy (FIG. 1A).
(A) Surface expression of CD11c, CD 11b and B220 on DCs derived from bone marrow of C57BL6, TLR9−/− or IFN-aβR−/−mice and cultured with GM-CSF/IL-4 (GM-DCs) or FLT3L (FL-DCs) in the presence of Thymosin alpha 1 (+) or the scrambled peptide ( ). Percent of double positive cells is indicated.

Thymosin alpha 1: naturally occurring thymic peptide; supplied as purified, endotoxin-free sterile lyophilized acetylated polypeptide from SciClone Pharmaceuticals (Ac-SDAAVDTSSEITTKDLKEKKEVVEEAEN; UniProt P06454 2-29, looked up)
survival to infection in the presence of donor T cells (A. fumigatus; donor T cells plus Thymosin alpha 1-treated GM-DCs): survived infection
local inflammatory cell recruitment and reaction in the lungs (histopathology) (A. fumigatus; mice infused with Thymosin alpha 1-treated GM-DCs, 3 days after infection): few healing infiltrates of inflammatory cells with no evidence of bronchial wall damage and inflammatory response and low
vaccinating potential of FL-DCs (A. fumigatus; transfer of Thymosin alpha 1-treated FL-DCs): would not affect the vaccinating potential of FL-DCs
protection from aspergillosis (survival, fungal growth) (A. fumigatus; transfer of Thymosin alpha 1-treated GM-DCs, intraperitoneally): complete protection
B220+CD11c+ cells in FL-DCs ([1]; FLT3L culture, 20 ng/mL): not increased
total yield of cells ([1]; GM-CSF/IL-4 culture, 20 ng/mL): did not affect total yield of cells
expansion of pDCs in GM-DCs from TLR9-/- or IFN-aβR-/- mice ([1]; GM-DCs from knockout mice): not observed
expansion of B220+CD11c+ cells ([1]; Thymosin alpha 1 alone, without GM-CSF/IL-4 or FLT3L): not observed
occurrence of pDCs (B220+CD11c+ cells) in GM-DCs ([1]; bone marrow cells, GM-CSF/IL-4, 7-9 days, peptide 20 ng/mL): greatly increased the occurrence of pDCs in GM-DCs
